From paper PMC8500670, “A selective WDR5 degrader inhibits acute myeloid leukemia in patient-derived mouse models” (Science translational medicine, 2021)
Read-outs that look alike come from different tables or passages of the source.

Assays:
Experiment in all cases: biochemical
Set-up in all cases: protein methyltransferase selectivity panel, enzyme activity relative to DMSO controls, single concentration in duplicate
GLP = biological target: T1, GLP (Homo sapiens, UniProt Q9H9B1); conditions: Substrate:=Histone H3 1-21
T1 construct: gene EHMT1
T1 sequence (Q9H9B1 1-1298): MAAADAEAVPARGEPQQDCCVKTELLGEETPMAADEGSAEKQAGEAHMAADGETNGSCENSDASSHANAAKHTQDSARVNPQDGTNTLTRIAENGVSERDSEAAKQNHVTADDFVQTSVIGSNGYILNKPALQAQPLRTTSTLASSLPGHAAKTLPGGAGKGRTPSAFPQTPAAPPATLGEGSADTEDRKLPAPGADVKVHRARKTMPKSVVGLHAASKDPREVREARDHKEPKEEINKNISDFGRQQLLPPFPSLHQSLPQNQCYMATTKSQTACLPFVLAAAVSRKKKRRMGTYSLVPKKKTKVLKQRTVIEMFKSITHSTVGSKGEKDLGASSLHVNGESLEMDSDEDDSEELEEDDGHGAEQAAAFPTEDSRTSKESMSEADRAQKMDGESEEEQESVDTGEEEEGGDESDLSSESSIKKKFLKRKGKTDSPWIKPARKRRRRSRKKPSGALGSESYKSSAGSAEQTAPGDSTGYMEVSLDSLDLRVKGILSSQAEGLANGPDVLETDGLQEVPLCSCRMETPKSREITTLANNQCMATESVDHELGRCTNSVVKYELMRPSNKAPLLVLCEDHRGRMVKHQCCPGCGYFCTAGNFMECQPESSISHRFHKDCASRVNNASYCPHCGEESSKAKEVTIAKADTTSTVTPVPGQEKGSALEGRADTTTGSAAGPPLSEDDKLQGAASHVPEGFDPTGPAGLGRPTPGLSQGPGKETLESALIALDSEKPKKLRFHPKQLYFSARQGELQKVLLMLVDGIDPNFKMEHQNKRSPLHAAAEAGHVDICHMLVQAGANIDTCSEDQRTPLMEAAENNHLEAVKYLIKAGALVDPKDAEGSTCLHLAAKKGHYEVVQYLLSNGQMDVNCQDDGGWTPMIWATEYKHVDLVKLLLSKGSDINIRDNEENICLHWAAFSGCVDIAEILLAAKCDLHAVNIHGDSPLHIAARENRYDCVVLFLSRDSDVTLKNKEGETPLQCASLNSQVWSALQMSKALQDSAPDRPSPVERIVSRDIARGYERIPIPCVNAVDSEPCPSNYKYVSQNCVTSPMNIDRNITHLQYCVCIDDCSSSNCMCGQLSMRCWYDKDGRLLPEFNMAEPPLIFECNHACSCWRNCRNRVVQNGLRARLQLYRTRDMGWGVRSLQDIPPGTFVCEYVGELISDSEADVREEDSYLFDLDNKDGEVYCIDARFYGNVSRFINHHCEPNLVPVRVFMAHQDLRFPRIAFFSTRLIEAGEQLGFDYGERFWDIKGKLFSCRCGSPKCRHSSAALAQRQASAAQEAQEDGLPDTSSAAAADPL
Procedure: (§1) We next assessed selectivity of MS67 against 22 protein methyltransferases (table S2) and a broad panel of common drug targets including 45 kinases (table S3) and 44 G protein–coupled receptors (GPCR), ion channels, and transporters (table S4). […] We subsequently determined that MS67 had moderate binding affinity (Ki = 1.0 ± 0.8 μM) to Sigma 2 receptor (fig. S10).

PRMT1 = PRMT1 (Homo sapiens, UniProt Q99873); conditions: Substrate:=Histone H4
PRMT1, sequence (Q99873 whole entry): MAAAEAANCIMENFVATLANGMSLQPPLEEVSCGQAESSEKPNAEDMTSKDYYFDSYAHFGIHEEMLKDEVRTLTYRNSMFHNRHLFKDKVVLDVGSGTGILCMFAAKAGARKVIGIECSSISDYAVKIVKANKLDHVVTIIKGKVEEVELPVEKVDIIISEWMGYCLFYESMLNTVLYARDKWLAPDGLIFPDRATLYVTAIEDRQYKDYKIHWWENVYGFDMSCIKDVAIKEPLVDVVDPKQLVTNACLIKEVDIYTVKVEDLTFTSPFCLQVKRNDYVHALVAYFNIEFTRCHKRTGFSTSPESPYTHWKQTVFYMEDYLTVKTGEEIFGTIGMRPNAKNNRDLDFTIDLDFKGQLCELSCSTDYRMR
Procedure: as §1

PRMT3 = PRMT3 (Homo sapiens, UniProt O60678); conditions: Substrate:=Histone H4
PRMT3, sequence (O60678 whole entry): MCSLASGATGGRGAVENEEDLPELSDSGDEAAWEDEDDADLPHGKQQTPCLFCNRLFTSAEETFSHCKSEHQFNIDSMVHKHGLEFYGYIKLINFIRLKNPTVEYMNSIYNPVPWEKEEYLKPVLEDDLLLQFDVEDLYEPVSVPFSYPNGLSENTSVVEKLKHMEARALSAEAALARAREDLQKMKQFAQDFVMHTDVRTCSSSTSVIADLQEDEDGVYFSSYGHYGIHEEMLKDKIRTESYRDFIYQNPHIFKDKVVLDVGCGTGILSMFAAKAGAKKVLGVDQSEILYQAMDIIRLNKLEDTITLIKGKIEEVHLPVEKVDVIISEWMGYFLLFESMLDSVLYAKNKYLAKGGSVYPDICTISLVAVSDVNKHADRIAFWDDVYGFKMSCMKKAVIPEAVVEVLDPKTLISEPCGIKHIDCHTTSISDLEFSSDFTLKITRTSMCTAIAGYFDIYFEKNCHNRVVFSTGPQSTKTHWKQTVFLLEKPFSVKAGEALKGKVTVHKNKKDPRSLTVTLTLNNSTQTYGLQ
Procedure: as §1

SUV39H2 = SUV39H2 (Homo sapiens, UniProt Q9H5I1); conditions: Substrate:=Histone H3; read-out: Enzyme % Activity (relative to DMSO controls) / MS67 / 10 / Data 1:
Procedure: as §1

[1] = read-out: Enzyme % Activity (relative to DMSO controls) / MS67 / 10 / Data 1:
[2] = read-out: Enzyme % Activity (relative to DMSO controls) / MS67 / 10 / Data 2:

SUV39H2, sequence (Q9H5I1 whole entry): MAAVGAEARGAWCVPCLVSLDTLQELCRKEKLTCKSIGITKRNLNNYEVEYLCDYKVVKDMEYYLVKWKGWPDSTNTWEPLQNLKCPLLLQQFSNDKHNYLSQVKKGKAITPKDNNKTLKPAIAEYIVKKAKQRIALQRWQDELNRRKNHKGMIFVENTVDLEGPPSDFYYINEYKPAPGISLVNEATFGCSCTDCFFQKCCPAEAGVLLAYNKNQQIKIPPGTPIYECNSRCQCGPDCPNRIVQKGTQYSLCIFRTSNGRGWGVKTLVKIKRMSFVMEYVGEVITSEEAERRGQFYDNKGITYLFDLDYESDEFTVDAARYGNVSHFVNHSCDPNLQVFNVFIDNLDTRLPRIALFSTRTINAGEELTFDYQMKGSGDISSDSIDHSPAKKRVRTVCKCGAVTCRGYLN

Cc1ncsc1-c1ccc([C@H](C)NC(=O)[C@@H]2C[C@@H](O)CN2C(=O)[C@@H](NC(=O)CNC(=O)c2ccc(F)c(-c3ccc(N4C[C@@H](C)N(C)[C@@H](C)C4)c(NC(=O)c4c[nH]c(=O)cc4C(F)(F)F)c3)c2)C(C)(C)C)cc1 [MS67]
remaining activity at 10 µM (GLP; [1]): 93.6%
remaining activity at 10 µM (GLP; [2]): 92.2%
remaining activity at 10 µM (PRMT1; [1]): 98.9%
remaining activity at 10 µM (PRMT1; [2]): 96%
remaining activity at 10 µM (PRMT3; [1]): 92%
remaining activity at 10 µM (PRMT3; [2]): 102%
remaining activity at 10 µM (SUV39H2): 102%
